Results published in PubChem BioAssay (NCI).
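Dose response: 5 concentrations. Exposure: 48 h. Format: 96-well plates. Endpoint: linear interpolation; highest concentration if not reached. GI50 marks 50% less growth. TGI denotes the concentration required for complete inhibition of growth.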

Legend:
Assay in all cases: DTP human tumour cell line panel, 48 h
[1] = test system: SN12C renal
[2] = test system: SF-268 CNS
[3] = test system: SK-MEL-5 melanoma
[4] = test system: CAKI-1 renal
[5] = test system: HT29 colon
[6] = test system: UO-31 renal
[7] = test system: M14 melanoma
[8] = test system: NCI-H460 lung
[9] = test system: SNB-19 CNS
[10] = test system: SK-MEL-28 melanoma
[11] = test system: 786-0 renal
[12] = test system: SNB-75 CNS
[13] = test system: HCT-15 colon
[14] = test system: T-47D breast
[15] = test system: LOX IMVI melanoma
[16] = test system: HOP-62 NSCLC
[17] = test system: MDA-MB-231 breast
[18] = test system: NCI-H522 lung
[19] = test system: OVCAR-3 ovarian
[20] = test system: KM12 colon
[21] = test system: OVCAR-8 ovarian
[22] = test system: IGROV1 ovarian
[23] = test system: HL-60(TB) leukemia
[24] = test system: OVCAR-4 ovarian
[25] = test system: SF-295 CNS
[26] = test system: RXF 393 renal
[27] = test system: NCI-H23 lung
[28] = test system: K-562 leukemia
[29] = test system: UACC-257 melanoma
[30] = test system: PC-3 prostate
[31] = test system: MDA-MB-435
[32] = test system: UACC-62 melanoma
[33] = test system: EKVX NSCLC
[34] = test system: RPMI-8226 leukemia
[35] = test system: U251 CNS
[36] = test system: DU-145 prostate
[37] = test system: MALME-3M melanoma
[38] = test system: HCC-2998 colon
[39] = test system: ACHN renal
[40] = test system: NCI-H226 lung
[41] = test system: TK-10 renal
[42] = test system: NCI/ADR-RES ovarian
[43] = test system: MCF7 breast
[44] = test system: SK-MEL-2 melanoma
[45] = test system: SF-539 CNS
[46] = test system: MOLT-4 leukemia
[47] = test system: OVCAR-5 ovarian
[48] = test system: COLO 205 colon
[49] = test system: SK-OV-3 ovarian
[50] = test system: CCRF-CEM leukemia
[51] = test system: A498 renal
[52] = test system: HCT-116 colon
[53] = test system: HOP-92 NSCLC
[54] = test system: SW-620 colon
[55] = test system: HS 578T breast
[56] = test system: A549 NSCLC
[57] = test system: BT-549 breast

## CSc1ccc(C2=NN(C(C)=O)C(c3ccc(F)cc3)C2)cc1 (centres undefined)
[1]
  GI50: 1.23 µM
  TGI: 12.6 µM
[2]
  GI50: 14.9 µM
  TGI: 42.5 µM
[3]
  GI50: 12.9 µM
  TGI: 26.4 µM
[4]
  GI50: 12.9 µM
  TGI: 42.2 µM
[5]
  GI50: 15.2 µM
  TGI: 46 µM
[6]
  GI50: 14.2 µM
  TGI: 29.8 µM
[7]
  GI50: 14.4 µM
  TGI: 28.8 µM
[8]
  GI50: 15.9 µM
  TGI: 50.7 µM
[9]
  GI50: 8.19 µM
  TGI: 37 µM
[10]
  GI50: 17 µM
  TGI: 34.2 µM
[11]
  GI50: 15.6 µM
  TGI: 35.7 µM
[12]
  GI50: 20 µM
  TGI: 44.1 µM
[13]
  GI50: 19.9 µM
  TGI: > 100 µM
[14]
  GI50: 11.5 µM
  TGI: 41.4 µM
[15]
  GI50: 10.8 µM
  TGI: 23.2 µM
[16]
  GI50: 16.6 µM
  TGI: 31.1 µM
[17]
  GI50: 10.7 µM
  TGI: 28.6 µM
[18]
  GI50: 14.7 µM
  TGI: 34.5 µM
[19]
  GI50: 16.2 µM
  TGI: 49.5 µM
[20]
  GI50: 12.8 µM
  TGI: 36.5 µM
[21]
  GI50: 19.4 µM
  TGI: 42 µM
[22]
  GI50: 7.73 µM
  TGI: 34.8 µM
[23]
  GI50: 5.56 µM
  TGI: 23.6 µM
[24]
  GI50: 15.9 µM
  TGI: 37.5 µM
[25]
  GI50: 16.4 µM
  TGI: 36.2 µM
[26]
  GI50: 18.5 µM
  TGI: 34.6 µM
[27]
  GI50: 16.5 µM
  TGI: 34.9 µM
[28]
  GI50: 14.5 µM
  TGI: 36 µM
[29]
  GI50: 22.4 µM
  TGI: 45 µM
[30]
  GI50: 12.7 µM
  TGI: 42.4 µM
[31]
  GI50: 15 µM
  TGI: 32.4 µM
[32]
  GI50: 7.97 µM
  TGI: 21.1 µM
[33]
  GI50: 21.6 µM
  TGI: 64.7 µM
[34]
  GI50: 12 µM
  TGI: 32.5 µM
[35]
  GI50: 5.96 µM
  TGI: 21.4 µM
[36]
  GI50: 23.8 µM
  TGI: 61.7 µM
[37]
  GI50: 15.8 µM
  TGI: 31.3 µM
[38]
  GI50: 20.4 µM
  TGI: 49.8 µM
[39]
  GI50: 16.9 µM
  TGI: 35.6 µM
[40]
  GI50: 13.7 µM
  TGI: 31.5 µM
[41]
  GI50: 19.8 µM
  TGI: 63.7 µM
[42]
  GI50: 16.4 µM
  TGI: 32.9 µM
[43]
  GI50: 17.2 µM
  TGI: 41.3 µM
[44]
  GI50: 20.5 µM
  TGI: 41.2 µM
[45]
  GI50: 17.5 µM
  TGI: 35.4 µM
[46]
  GI50: 2.36 µM
  TGI: 9.69 µM
[47]
  GI50: 18.9 µM
  TGI: 43.7 µM
[48]
  GI50: 13.2 µM
  TGI: 31.4 µM
[49]
  GI50: 23 µM
  TGI: 67.7 µM
[50]
  GI50: 0.617 µM
  TGI: 24.5 µM
[51]
  GI50: 12.5 µM
  TGI: 26.8 µM
[52]
  GI50: 7.11 µM
  TGI: 20.1 µM
[53]
  GI50: 10.1 µM
  TGI: 22.1 µM
[54]
  GI50: 17.7 µM
  TGI: 40.3 µM
[55]
  GI50: 20.8 µM
  TGI: 49.7 µM
[56]
  GI50: 12.1 µM
  TGI: 30.9 µM
[57]
  GI50: 20.3 µM
  TGI: 40.2 µM
